Patent publication US8110601B2, “Compound, α1 adrenergic receptor antagonistic agent, and composition” (Suntory Holdings Limited, priority 2007, dated 2012)

How the values were obtained:
α1A receptor = biological target: T1, α1A receptor (Rattus norvegicus, UniProt P43140); test: α1 adrenergic receptor binding test ([3H]prazosin displacement, rat salivary gland membrane homogenate); conditions: [3H]prazosin 0.06 nM as ligand; membrane homogenate of rat salivary gland; 22° C., 60 minutes; specimens 0.02-20 μM
T1 construct: the α1A receptors are present on a membrane of a rat salivary gland; from tissue; host or cells: rat salivary gland membrane homogenate
T1 sequence (P43140 1-466): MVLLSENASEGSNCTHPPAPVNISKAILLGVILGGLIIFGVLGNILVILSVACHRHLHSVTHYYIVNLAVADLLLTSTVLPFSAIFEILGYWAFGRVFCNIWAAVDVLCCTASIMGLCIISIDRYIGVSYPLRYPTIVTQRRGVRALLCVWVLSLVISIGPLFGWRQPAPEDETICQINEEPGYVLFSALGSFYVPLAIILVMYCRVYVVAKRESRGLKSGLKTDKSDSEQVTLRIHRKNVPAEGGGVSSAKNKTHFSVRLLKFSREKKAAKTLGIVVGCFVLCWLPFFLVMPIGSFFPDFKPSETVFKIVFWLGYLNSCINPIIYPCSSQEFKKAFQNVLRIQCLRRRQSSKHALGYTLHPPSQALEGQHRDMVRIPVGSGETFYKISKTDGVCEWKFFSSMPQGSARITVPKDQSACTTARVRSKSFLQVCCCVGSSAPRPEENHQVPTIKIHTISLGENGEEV
Protocol: The compound 19a synthesized in Examples above was weighed, to which 100% dimethylsulfoxide (DMSO) was added so as to prepare a solution at 10-fold of the final concentration. The solution was diluted with an assay buffer, to thereby prepare four types of specimens with different concentrations (0.02 μM, 0.2 μM, 2 μM, 20 μM). In addition, with respect to each of the compound 19b, the racemic mixture of the compounds 19a and 19b, and the racemic mixture of the compounds 20a and 20b, likewise, four types of specimens were prepared (see Mitchel, A. D. et al., (1989) Brt. J. Pharmacol., 98: 883-889).
Next, as the α1 adrenergic receptor, an α1A receptor (one of subtypes of the α1 adrenergic receptor) was used, and a binding ability to the α1A receptor was examined.
It has been known that the α1A receptors are present on a membrane of a rat salivary gland. To an assay buffer (250 μL) containing a membrane homogenate of a rat salivary gland (150 μg in terms of protein amount) were added the above-mentioned specimen and [^3H]prazosin (0.06 nM) as ligand, to thereby prepare a reaction liquid, which was then incubated at 22° C. for 60 minutes. After the incubation, the reaction liquid was subjected to suction filtration using a glass fiber filter (GF/B, manufactured by Packard) which had been washed with 0.3% PEI (polyethyleneimine), to terminate reaction. The glass fiber filter was washed with 50 mM Tris-HCl cooled with ice, washing being repeated several times. The glass fiber filter was dried, a scintillation cocktail (Microscint 0, manufactured by Packard) was added thereto, and residual radioactivity on the filter was measured using a liquid scintillation counter (Topcount, manufactured by Packard). An amount of specific binding of [^3H]prazosin was obtained by subtracting an amount of non-specific binding in the presence of phentolamine (10 μM) from a total binding amount of [^3H]prazosin.

α1 adrenergic receptor = test: Rat tail artery constriction inhibition test; conditions: phenylephrine 10 μM, compound 1 μM, 100 μM in organ bath, other receptors blocked with antagonists
Protocol: Since the α1 adrenergic receptor antagonist has been known to have a vasoconstriction inhibition effect, the constriction inhibition effect of the compounds was examined using rat tail artery.
The compound 19a synthesized in Examples above was weighed, to which 100% dimethylsulfoxide (DMSO) was added so as to prepare a sample solution (stock solution) (concentration of the compound 19a: 100 mM). In addition, the compound 19b, the racemic mixture of the compounds 19a and 19b, and the racemic mixture of the compounds 20a and 20b were prepared likewise.
A tissue (rat tail artery) with an exposed endothelium was suspended in an organ bath filled with 20 mL of saline (NaCl: 118.0 mM, KCl: 4.7 mM, MgSO4: 1.2 mM, CaCl2: 2.5 mM, NaHCO3: 25 mM, glucose: 11.0 mM) (pH7.4) at 37° C., into which 95% oxygen/5% carbon dioxide had been fed. In the rat tail artery tissue, the α2 adrenergic receptor, β adrenergic receptor, histamine H1 receptor, muscarine receptor, and 5-HT2 receptor had been expressed like the α1 adrenergic receptor had, and in order to block the actions of these receptors, antagonistic agents (antagonists) for the respective receptor, i.e., yohimbine (1 μM), propranol (1 μM), pyrilamine (1 μM), atropine (1 μM), and methysergide (1 μM), were added.
In order to measure the contraction of the tissue caused by an action of the α1 adrenergic receptor, the tissue was connected to a force transducer which outputs a tension of the tissue as data. The tension in a static state was adjusted to become 1 g, and was maintained for 60 minutes (during that time period, the tissue was repeatedly washed with saline to readjust the tension). To the tissue was added 10 μM of a reference agonist (phenylephrine 1.0E-05M), and it was confirmed that the tissue responded in a normal manner. At the same time, there was recorded the tension (g) obtained by the contraction of the tissue caused by the action of the reference agonist. After confirming that the tissue responded in a normal manner, the reference agonist was washed out once, and the tissue was allowed to stand still for up to 15 minutes until the response returns to a static state (tension: 1 g).
After the response returned to the static state (tension: 1 g), the reference agonist was added so that the contraction rate of the tissue becomes 100%.
Next, the sample solution or a diluted solution thereof was added in such a manner that each of the concentrations of the compound 19a, the compound 19b, the racemic mixture of the compounds 19a and 19b, and the racemic mixture of the compounds 20a and 20b in the organ bath was increased in three stages (1 μM, 10 μM, 100 μM). Every time the concentration was increased, the tension was measured, and the contraction rate was calculated using the following equation. […]

| IC50 (α1A receptor) | Structure (SMILES) | effect on contraction of rat tail artery caused by reference agonist (phenylephrine) (α1 adrenergic receptor) |
| --- | --- | --- |
| 2390 nM | COC(=O)C1c2cc(C=CC(=O)NCCCCNC(=N)N)ccc2OC1c1ccc(O)cc1 (racemic) [racemic mixture of the compounds 19a and 19b, methyl-5-(1E)-[[4-(aminoiminomethyl)amino]butylamino]-3-oxo-1-propenyl]-2,3-dihydro-2-(4-hydroxyphenyl)-3-benzofurancarboxylate] | suppressed a response in the reference agonist (phenylephrine) in a dosage-dependent manner |
| 1990 nM | N=C(N)NCCCCNC(=O)/C=C/c1ccc2c(c1)C(C(=O)O)C(c1ccc(O)cc1)O2 (racemic) [racemic mixture of the compounds 20a and 20b] | suppressed a response in the reference agonist (phenylephrine) in a dosage-dependent manner |
| 2030 nM | COC(=O)[C@@H]1c2cc(/C=C/C(=O)NCCCCNC(=N)N)ccc2O[C@H]1c1ccc(O)cc1 [compound 19a] | suppressed a response in the reference agonist (phenylephrine) in a dosage-dependent manner |
| 610 nM | COC(=O)[C@H]1c2cc(/C=C/C(=O)NCCCCNC(=N)N)ccc2O[C@@H]1c1ccc(O)cc1 [compound 19b] | suppressed a response in the reference agonist (phenylephrine) in a dosage-dependent manner |
